# What was measured:
# [1] = human
# [2] = human; remark: listed apart in the source
# [3] = human, serum, 4383 h
# [4] = Times to onset, minimal and maximal, observed in the indexed observations. [column 'DELAI' in source]; details: human
# [5] = Proposed mechanism(s) of liver damage. [column 'MEC' in source]; details: human
# [6] = human; remark: listed apart in the source
# [7] = human; remark: listed apart in the source
# [8] = human, serum
# [9] = Comments (NB not yet translated). [column 'COMMENTAIRES' in source]; details: human
# [10] = human; remark: listed apart in the source
# [11] = Highest frequency of acute liver toxicity observed during clinical trials, expressed as a percentage. [column '% AIGUE' in source]; details: human
# [12] = human, serum; remark: listed apart in the source
# [13] = Highest frequency of moderate liver toxicity observed during clinical trials, expressed as a percentage. [column '% BIOL' in source]; details: human
# [14] = human; remark: listed apart in the source
# [15] = human; remark: listed apart in the source
# [16] = human; remark: listed apart in the source
# [17] = human; remark: listed apart in the source
# [18] = human; remark: listed apart in the source
# 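Throughout, for Hepatotoxicity (association with vascular disease): count of indexed literature references reporting vascular liver injury in humans, e.g. peliosis hepatitis, hepatic veno-occlusive disease or Budd-Chiari syndrome.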
# 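Throughout, for Hepatotoxicity (benign tumour): value is a count of indexed literature references citing a benign tumour confirmed by histopathology.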
# 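Throughout, for Hepatotoxicity (choleostasis): human cholestatic liver injury, shown by histopathology or by peak ALT or AST elevation over alkaline phosphatase ratio below 2, value counts indexed literature reports.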
# 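Throughout, for Hepatotoxicity (chronic liver disease): chronic liver injury confirmed by histopathology or persistently raised serum aminotransferase activity beyond 6 months, value given as the count of indexed literature references.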
# 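Throughout, for Hepatotoxicity (cirrhosis): value is a count of indexed literature references reporting cirrhosis confirmed by histopathology.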
# 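Throughout, for Hepatotoxicity (cytolytic): human cytolytic liver injury, shown by histopathology or by a ratio above 5 of peak ALT or AST elevation to alkaline phosphatase elevation, value counts indexed references.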
# 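Throughout, for Hepatotoxicity (granulomatous hepatitis): value is a count of indexed literature references reporting granulomatous liver disease confirmed by histopathology.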
# 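Throughout, for Hepatotoxicity (malignant tumour): malignant tumour confirmed by histopathology, value gives the count of indexed literature references reporting it.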
# 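Throughout, for Hepatotoxicity (severe hepatitis): human clinical data: severe hepatitis, meaning potentially life-threatening liver failure or clinically observed cases, the value counts how many indexed literature references report it.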
# 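Throughout, for Hepatotoxicity (steatosis): steatosis confirmed by histopathology, value is the count of indexed references.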
SMILES,Hepatotoxicity (choleostasis) [1],Hepatotoxicity (cytolytic) [2],Hepatotoxicity (chronic liver disease) [3],Hepatotoxicity (time to onset) [4],Hepatotoxicity (mechanism) [5],Hepatotoxicity (benign tumour) [6],Hepatotoxicity (association with vascular disease) [7],Hepatotoxicity (moderate) [8],Hepatotoxicity (comment) [9],Hepatotoxicity (animal toxicity known) [10],Hepatotoxicity (acute) [11] [%],Hepatotoxicity (acute) [12],Hepatotoxicity (moderate) [13] [%],Hepatotoxicity (malignant tumour) [14],Hepatotoxicity (steatosis) [15],Hepatotoxicity (cirrhosis) [16],Hepatotoxicity (granulomatous hepatitis) [17],Hepatotoxicity (severe hepatitis) [18],Hepatotoxicity (acute) ([11]; Liver) [%],Hepatotoxicity (moderate) ([13]; Liver) [%],also measured
CC1(C)S[C@@H]2[C@H](NC(=O)Cc3ccccc3)C(=O)N2[C@H]1C(=O)O [PENICILLIN G],9,5,1,0.5 hour - 18 days,Allergic,0,0,9,CHOLESTASE_PROLONGEE CHOLANGITE AC_ANTI-N,yes,0,17,13.2,0,0,0,3,1,–,–,–
CO/N=C(\C(=O)N[C@@H]1C(=O)N2C(C(=O)O)=C(CSc3nc(=O)c(=O)[nH]n3C)CS[C@H]12)c1csc(N)n1 [CEFTRIAXONE],2,3,0,2 days - 25 days,Dose-dependant,0,0,71,PSEUDOLITHIASE,yes,4.6,7,30,0,0,0,0,0,–,–,–
O=C(O)c1cn(C2CC2)c2cc(N3CCNCC3)c(F)cc2c1=O [CIPROFLOXACIN],12,7,1,2 days - 6 months,"Allergic, Dose-dependant",0,0,114,DUCTOPENIE AC_ANTI-N/-ADN,yes,–,21,–,0,1,0,0,–,0.2,46.4,Hepatotoxicity (severe hepatitis) ([18]; Liver): 5
CN(C/C=C/C#CC(C)(C)C)Cc1cccc2ccccc12 [TERBINAFINE],15,7,1,1 week - 6 months,Reactive metabolite,0,1,21,CHOLANGITE DUCTOPENIE CHOLESTASE_PROLONGEE,yes,0,23,36.7,0,0,0,0,3,–,–,–
CC1=C(/C=C/C(C)=C/C=C/C(C)=C/CO)C(C)(C)CCC1 [RETINOL],–,–,26,11 days - 17.5 years,–,0,10,8,I/ALCOOL,yes,–,0,–,0,22,22,–,–,0,33,Hepatotoxicity (choleostasis) ([1]; Liver): 0; Hepatotoxicity (cytolytic) ([2]; Liver): 0; Hepatotoxicity (mechanism) ([5]; Liver): Dose-dependant; Hepatotoxicity (granulomatous hepatitis) ([17]; Liver): 0; Hepatotoxicity (severe hepatitis) ([18]; Liver): 1
CNCCCN1c2ccccc2CCc2ccccc21 [DESIPRAMINE],–,–,0,1 week - 1 month,–,0,0,4,RC/IMIPRAMINE/TRIMIPRAMINE/CYAMEMAZINE,yes,–,–,–,0,0,0,–,–,0,8.7,Hepatotoxicity (choleostasis) ([1]; Liver): 1; Hepatotoxicity (cytolytic) ([2]; Liver): 5; Hepatotoxicity (mechanism) ([5]; Liver): Allergic; Hepatotoxicity (granulomatous hepatitis) ([17]; Liver): 0; Hepatotoxicity (severe hepatitis) ([18]; Liver): 1
Clc1ccccc1CN1CCc2sccc2C1 [TICLOPIDINE],–,–,1,1 week - 3 years,–,0,0,–,CHOLANGITE CHOLESTASE_PROLONGEE AC_ANTI-N,yes,–,–,–,0,1,0,–,–,–,–,Hepatotoxicity (choleostasis) ([1]; Liver): 56; Hepatotoxicity (cytolytic) ([2]; Liver): 15; Hepatotoxicity (mechanism) ([5]; Liver): Allergic; Hepatotoxicity (granulomatous hepatitis) ([17]; Liver): 2
CCOC(=O)C(C)(C)Oc1ccc(Cl)cc1 [CLOFIBRATE],1,2,0,2 months - 7 years,–,1,0,4,RC/FENOFIBRATE,yes,0,3,19.7,0,1,0,1,0,–,–,–
COc1cccc2c1C(=O)c1c(O)c3c(c(O)c1C2=O)C[C@@](O)(C(C)=O)C[C@@H]3O[C@H]1C[C@H](N)[C@H](O)[C@H](C)O1 [DAUNORUBICIN],0,2,0,3 cures,–,0,2,3,I/THIOGUANINE,yes,0,2,68,0,0,0,0,0,–,–,–
